Laboratory results from patent US20020103398A1, “2-Amino-2-alky-4 heptenoic and heptynoic acid derivatives useful as nitric oxide synthase inhibitors” (priority 2000, published 2002).
Where a name gives a salt, the structure may show the parent alone.

Experiments:
Type in all cases: biochemical
[1] = target: T1, Human inducible NOS (hiNOS) (Homo sapiens, UniProt P35228); assay: Citrulline assay for nitric oxide synthase (hiNOS); details: recombinant enzyme from Sf9 cells; 30 μM L-arginine; 37° C., 15 minutes
T1 construct: made in house; host or cells: Sf9 insect cells, baculovirus vector
Description: (§1) Nitric oxide synthase (NOS) activity can be measured by monitoring the conversion of L-[2,3-^3H]-arginine to L-[2,3-^3H]-citrulline (Bredt and Snyder, Proc. Natl. Acad. Sci. U.S.A., 87, 682-685, 1990 and Moore et al, J. Med. Chem. 39, 669-672, 1996). Human inducible NOS (hiNOS), human endothelial constitutive NOS (hecNOS) and human neuronal constitutive NOS (hncNOS) are each cloned from RNA extracted from human tissue. The cDNA for human inducible NOS (hiNOS) is isolated from a λcDNA library made from RNA extracted from a colon sample from a patient with ulcerative colitis. The cDNA for human endothelial constitutive NOS (hecNOS) is isolated from a λcDNA library made from RNA extracted from human umbilical vein endothelial cells (HUVEC) and the cDNA for human neuronal constitutive NOS (hncNOS) is isolated from a λcDNA library made from RNA extracted from human cerebellum obtained from a cadaver. […] After mixing the resin is allowed to settle and L-[2,3-^3H]-Citrulline formation is determined by counting aliquots of the supernatant with a liquid scintillation counter. IC50 values can be determined by testing each compound at several concentrations. […]

[2] = target: T2, human endothelial constitutive NOS (hecNOS) (Homo sapiens, UniProt P29474); assay: Citrulline assay for nitric oxide synthase (hecNOS); details: recombinant enzyme from Sf9 cells; 30 μM L-arginine; calmodulin 40-100 nM; 37° C., 15 minutes
T2 construct: made in house; host or cells: Sf9 insect cells, baculovirus vector
Description: as §1

[3] = target: T3, human neuronal constitutive NOS (hncNOS) (Homo sapiens, UniProt P29475); assay: Citrulline assay for nitric oxide synthase (hncNOS); details: recombinant enzyme from Sf9 cells; 30 μM L-arginine; calmodulin 40-100 nM; 37° C., 15 minutes
T3 construct: made in house; host or cells: Sf9 insect cells, baculovirus vector
Description: as §1

T2 sequence (P29474 2-1203): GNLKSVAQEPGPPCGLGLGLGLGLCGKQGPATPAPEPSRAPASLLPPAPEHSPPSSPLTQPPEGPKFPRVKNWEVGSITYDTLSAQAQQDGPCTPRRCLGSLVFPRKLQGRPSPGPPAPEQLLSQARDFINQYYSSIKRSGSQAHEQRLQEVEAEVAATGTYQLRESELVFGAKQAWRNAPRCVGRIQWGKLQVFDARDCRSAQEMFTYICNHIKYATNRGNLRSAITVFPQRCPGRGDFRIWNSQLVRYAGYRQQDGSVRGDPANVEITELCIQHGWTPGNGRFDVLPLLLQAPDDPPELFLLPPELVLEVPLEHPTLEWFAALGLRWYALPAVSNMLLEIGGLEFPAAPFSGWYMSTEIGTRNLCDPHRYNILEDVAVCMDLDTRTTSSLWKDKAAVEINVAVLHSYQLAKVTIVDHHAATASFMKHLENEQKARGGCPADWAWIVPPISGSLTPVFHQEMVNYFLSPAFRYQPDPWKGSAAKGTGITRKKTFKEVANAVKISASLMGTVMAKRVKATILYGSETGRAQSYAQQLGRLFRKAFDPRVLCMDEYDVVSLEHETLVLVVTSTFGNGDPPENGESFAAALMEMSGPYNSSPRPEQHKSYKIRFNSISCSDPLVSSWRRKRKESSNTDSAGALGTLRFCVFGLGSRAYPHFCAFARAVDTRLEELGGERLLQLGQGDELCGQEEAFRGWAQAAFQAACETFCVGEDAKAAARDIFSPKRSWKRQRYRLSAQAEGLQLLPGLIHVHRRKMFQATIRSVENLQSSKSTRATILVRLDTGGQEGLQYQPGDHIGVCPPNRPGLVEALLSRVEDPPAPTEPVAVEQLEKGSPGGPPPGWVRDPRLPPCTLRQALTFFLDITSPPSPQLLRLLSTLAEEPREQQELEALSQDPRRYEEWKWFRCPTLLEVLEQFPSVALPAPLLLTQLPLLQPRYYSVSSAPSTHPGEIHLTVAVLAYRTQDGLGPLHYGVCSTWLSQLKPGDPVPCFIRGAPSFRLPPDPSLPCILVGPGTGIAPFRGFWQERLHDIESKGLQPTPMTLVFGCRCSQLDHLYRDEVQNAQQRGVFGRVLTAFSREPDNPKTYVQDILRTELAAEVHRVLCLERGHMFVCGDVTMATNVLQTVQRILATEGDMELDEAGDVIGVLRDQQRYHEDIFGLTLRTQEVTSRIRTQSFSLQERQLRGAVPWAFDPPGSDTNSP
T3 sequence (P29475 whole entry): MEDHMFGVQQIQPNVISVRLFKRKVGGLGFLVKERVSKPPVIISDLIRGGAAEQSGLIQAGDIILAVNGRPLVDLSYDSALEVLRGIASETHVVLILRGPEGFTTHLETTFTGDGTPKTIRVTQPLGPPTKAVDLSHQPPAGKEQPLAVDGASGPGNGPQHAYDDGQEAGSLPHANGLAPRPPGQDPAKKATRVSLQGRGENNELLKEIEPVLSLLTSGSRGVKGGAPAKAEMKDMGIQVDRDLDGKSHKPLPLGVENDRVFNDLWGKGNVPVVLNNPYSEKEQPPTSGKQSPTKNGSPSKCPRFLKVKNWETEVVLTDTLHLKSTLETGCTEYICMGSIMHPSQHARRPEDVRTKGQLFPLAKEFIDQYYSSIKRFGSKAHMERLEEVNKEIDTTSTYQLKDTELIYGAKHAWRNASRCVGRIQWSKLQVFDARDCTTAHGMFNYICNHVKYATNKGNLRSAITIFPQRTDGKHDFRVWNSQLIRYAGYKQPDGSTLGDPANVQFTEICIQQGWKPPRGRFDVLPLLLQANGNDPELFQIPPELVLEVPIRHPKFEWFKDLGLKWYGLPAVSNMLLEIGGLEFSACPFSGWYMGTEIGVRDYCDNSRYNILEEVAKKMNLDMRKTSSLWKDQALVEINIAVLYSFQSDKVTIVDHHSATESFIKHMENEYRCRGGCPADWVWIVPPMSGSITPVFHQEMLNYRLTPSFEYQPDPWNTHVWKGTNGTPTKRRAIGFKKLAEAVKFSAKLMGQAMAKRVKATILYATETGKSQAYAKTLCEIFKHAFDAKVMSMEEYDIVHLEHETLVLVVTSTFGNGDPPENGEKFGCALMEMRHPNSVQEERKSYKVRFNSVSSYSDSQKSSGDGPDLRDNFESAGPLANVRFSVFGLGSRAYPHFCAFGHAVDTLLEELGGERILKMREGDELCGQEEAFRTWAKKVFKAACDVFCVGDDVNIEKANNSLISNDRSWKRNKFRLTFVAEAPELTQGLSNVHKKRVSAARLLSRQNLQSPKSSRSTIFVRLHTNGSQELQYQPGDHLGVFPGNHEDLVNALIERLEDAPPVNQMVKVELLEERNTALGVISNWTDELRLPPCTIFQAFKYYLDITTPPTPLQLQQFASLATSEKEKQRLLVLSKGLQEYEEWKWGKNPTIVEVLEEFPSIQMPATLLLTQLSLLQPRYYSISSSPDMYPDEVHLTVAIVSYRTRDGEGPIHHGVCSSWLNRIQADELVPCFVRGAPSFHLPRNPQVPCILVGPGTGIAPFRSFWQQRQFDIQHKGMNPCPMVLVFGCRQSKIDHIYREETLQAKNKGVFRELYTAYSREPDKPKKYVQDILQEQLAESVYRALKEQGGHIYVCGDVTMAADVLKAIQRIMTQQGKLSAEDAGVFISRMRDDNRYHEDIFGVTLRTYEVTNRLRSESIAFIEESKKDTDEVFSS
T1 sequence (P35228 whole entry): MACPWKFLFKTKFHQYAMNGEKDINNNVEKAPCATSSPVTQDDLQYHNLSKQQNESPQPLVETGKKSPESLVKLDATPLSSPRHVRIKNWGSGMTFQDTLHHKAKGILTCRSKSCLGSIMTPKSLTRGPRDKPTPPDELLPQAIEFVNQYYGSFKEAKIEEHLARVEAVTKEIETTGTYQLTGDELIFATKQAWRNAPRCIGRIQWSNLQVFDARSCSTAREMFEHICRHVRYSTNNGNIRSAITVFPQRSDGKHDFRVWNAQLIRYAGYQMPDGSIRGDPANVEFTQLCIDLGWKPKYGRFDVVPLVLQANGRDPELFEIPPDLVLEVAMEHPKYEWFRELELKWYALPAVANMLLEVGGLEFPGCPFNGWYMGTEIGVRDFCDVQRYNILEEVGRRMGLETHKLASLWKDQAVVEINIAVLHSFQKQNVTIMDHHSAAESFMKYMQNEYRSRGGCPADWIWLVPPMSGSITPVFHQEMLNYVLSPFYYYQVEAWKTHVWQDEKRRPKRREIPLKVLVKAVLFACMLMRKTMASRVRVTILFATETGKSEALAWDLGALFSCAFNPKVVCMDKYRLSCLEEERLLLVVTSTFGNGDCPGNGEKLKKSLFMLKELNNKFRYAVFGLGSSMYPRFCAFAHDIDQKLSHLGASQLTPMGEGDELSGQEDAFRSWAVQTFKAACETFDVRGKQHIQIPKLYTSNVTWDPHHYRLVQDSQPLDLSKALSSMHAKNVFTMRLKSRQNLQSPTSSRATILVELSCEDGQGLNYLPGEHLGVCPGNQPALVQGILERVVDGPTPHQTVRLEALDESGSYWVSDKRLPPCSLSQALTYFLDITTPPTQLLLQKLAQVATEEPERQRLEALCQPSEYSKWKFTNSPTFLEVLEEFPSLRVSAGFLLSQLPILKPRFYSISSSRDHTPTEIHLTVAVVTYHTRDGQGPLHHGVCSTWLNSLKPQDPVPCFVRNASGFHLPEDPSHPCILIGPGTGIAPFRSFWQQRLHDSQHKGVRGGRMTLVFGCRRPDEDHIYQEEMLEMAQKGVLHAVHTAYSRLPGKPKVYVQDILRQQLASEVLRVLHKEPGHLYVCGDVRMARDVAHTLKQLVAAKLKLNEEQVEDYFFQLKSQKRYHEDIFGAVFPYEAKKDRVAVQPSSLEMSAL

## CC(=N)NCC/C=C\CC(C)(N)C(=O)O (racemic) [Example 1, (2R/S,4Z)-2-amino-2-methyl-7-[(1-iminoethyl)amino]-4-heptenoic Acid, Dihydrochloride]
[1]
  IC50: 34 µM
[2]
  IC50: 386 µM
[3]
  IC50: 122 µM
